Patent US20110091931A1, “Methods and Kits for Determining Oxygen Free Radical (OFR) Levels in Animal and Human Tissues as a Prognostic Marker for Cancer and Other Pathophysiologies” (COLBY PHARMACEUTICAL COMPANY, priority 2009, published 2011)
Read-outs that look alike come from different tables or passages of the source.

Assays:
[1] = test system: prostate cancer cells; conditions: androgen-dependent and androgen-independent prostate cancer cells; cited from earlier work
[2] = target: Androgen Receptor (AR) (Homo sapiens, UniProt P10275, T878A); conditions: LNCaP cells; for fluorescence score, geometric mean / fluorescence score, mean after logarithmic transformation: 40 cells
Sequence of Androgen Receptor (AR) (P10275 whole entry T878A): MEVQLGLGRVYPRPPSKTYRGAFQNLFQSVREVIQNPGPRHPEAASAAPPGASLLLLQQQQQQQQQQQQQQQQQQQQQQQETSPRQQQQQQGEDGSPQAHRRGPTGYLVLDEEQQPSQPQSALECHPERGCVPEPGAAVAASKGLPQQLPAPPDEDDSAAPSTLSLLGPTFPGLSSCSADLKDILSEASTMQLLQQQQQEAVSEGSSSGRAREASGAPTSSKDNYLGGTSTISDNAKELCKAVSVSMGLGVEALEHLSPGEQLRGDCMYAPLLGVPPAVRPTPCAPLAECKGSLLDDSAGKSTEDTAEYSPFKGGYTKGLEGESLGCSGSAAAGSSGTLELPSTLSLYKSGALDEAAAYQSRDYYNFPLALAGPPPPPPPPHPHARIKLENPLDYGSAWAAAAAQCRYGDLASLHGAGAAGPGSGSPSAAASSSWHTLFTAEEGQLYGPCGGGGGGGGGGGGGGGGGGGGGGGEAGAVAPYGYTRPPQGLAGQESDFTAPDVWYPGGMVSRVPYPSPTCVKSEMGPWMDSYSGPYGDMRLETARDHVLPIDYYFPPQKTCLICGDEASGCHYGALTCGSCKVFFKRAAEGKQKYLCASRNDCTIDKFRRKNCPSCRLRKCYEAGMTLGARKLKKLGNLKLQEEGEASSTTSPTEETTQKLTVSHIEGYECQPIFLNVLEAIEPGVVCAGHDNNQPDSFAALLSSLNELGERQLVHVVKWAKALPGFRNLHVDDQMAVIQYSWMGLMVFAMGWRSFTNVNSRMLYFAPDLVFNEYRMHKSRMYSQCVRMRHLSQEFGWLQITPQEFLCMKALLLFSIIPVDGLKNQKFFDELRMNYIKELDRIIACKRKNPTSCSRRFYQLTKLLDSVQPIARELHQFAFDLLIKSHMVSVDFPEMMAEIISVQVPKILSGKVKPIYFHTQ
Experimental: The quantitation of subcellular fluorescence was further validated using a known system—nuclear translocation of AR in LNCaP cells treated with androgen (dihydrotestosterone) or androgen analog metribolone. […] LNCaP cells in charcoal stripped androgen depleted medium are grown for 6 days in the presence of low (0.05 nM) metribolone and 4 more days in the presence of high (1 nM) metribolone. […] For objective analysis of the response, a quantitation of the IHC fluorescence is necessary. The Bioimager was used to quantitate the IHC fluorescence of AR in the nuclei and in the cytoplasm of about 40 cells from four random areas of the microscopic field from each plate.

[3] = test system: LNCaP human prostate cancer cells; test: DCFH dye oxidation kinetics (ROS, v0) in nuclei and cytoplasm of LNCaP cells; format: cell-based; conditions: metribolone treatment over 24-96 h
Experimental: Standardization of cell-based fluorescence quantitation assay. We standardized the BD Pathway Bioimager quantitation of cellular ROS using a well-established cell culture based system. […] The ROS levels in these published studies were determined by monitoring DCFH dye oxidation, where DCFH is oxidized to DCF by ROS to yield quantifiable green fluorescence. The DCF fluorescence in live cell cytoplasm and nuclei (FIG. 2B) were quantitated by using the Hoechst 33342 dye staining of the cell nuclei (blue fluorescence in FIG. 2) that allows for auto focusing, positioning and mapping the contour of the cell nuclei and cytoplasms.
(1) Kinetics of DCF dye oxidation: Oxidation of DCFH to fluorescence DCF dye is a relatively fast reaction that is usually complete within 30-60 minutes. […] Curve fitting of the first 20-30 min of the plot of DCF fluorescence intensity vs. time with a pseudo-first order reaction kinetics yields the initial velocity (v0) values of the reaction (see below), which is directly proportional to the ROS concentration at the time point of DCF dye addition.
(1) Real-time kinetics of DCF dye oxidation in cell nuclei and cytoplasm: DCF dye oxidation kinetics in the nuclei and cytoplasm of LNCaP cells were determined using the BD Bioimager software coupled with Sigmaplot curve-fitting program. […]

[4] = test system: SSAT; test: SSAT mRNA level by qRT-PCR in LNCaP cells; format: cell-based, human
Experimental: Each data point was an average of readings from six identically treated LNCaP prostate cancer cell sample wells with readings repeated twice in triplicate sets.
In order to confirm that SSAT was the major source of androgen induced oxidative stress, we developed and used a stable LNCaP cell clone transfected with plasmid transcribing siRNA designed to silence SSAT mRNA expression. The SSAT mRNA level in these cells was determined by qRT-PCR method. […] The ratio of DCF fluorescence (green):DNA fluorescence (blue) for each of the treated well of a 96 well plate normalized to that of the average of control untreated wells represents the ROS level per cell relative to that in control untreated cells. The data points are the mean of numbers obtained from repeat experiments using thirty identically treated wells.

[5] = test system: SSAT (spermidine/spermine acetyl transferase) gene; test: DNA microarray analysis of gene expression (Affymetrix Gene chip Array) in LNCaP cells; format: cell-based, human; conditions: 1 nM R1881, 96 h vs untreated
Experimental: SSAT induction is a mechanism of ROS production in CaP cells. In our search for the biochemical mechanism and convenient diagnostic monitoring of androgen-induced ROS production in prostate cells, a DNA microarray analysis of gene expression was also performed using the Affymetrix Gene chip Array We used untreated androgen dependent LNCaP cells and cells treated with 1 nM androgen […] (a well-accepted androgen analog routinely used due to its stability) for 96 h for these studies. […] We noted with considerable interest that among the list of genes that are overexpressed by more than an order of magnitude after androgen-treatment, SSAT is the only enzyme that is directly related to a ROS-generating biochemical pathway.

[6] = test system: LNCaP cells; test: HPLC quantitation of polyamine and acetyl polyamine levels in LNCaP cells; format: cell-based, human; conditions: R1881 1 nM, 96 h
Description: This method is routinely used in the analytical laboratory of the core facility of Cancer Centers and was accessible for quantitative assays necessary for the PK/PD determinations. […] Each data point was an average of two determinations where sample cell pellets were collected from three independent experiments.

[7] = test system: LNCaP cells; test: DCF dye oxidation assay of androgen (R1881) induced ROS production; format: cell-based, human; conditions: cells (si22) transfected with vector transcribing siRNA against SSAT
Experimental: SSAT induction is a major source of androgen induced oxidative stress. In order to confirm that SSAT was the major source of androgen induced oxidative stress, we developed and used a stable LNCaP cell clone transfected with plasmid transcribing siRNA designed to silence SSAT mRNA expression. The SSAT mRNA level in these cells was determined by qRT-PCR method. In the cells transfected only with the vector, the SSAT mRNA level increased by over 8-fold after 96 h treatment with R1881, whereas in cells stably transfected with SSAT siRNA (si22), R1881 under similar treatment condition induced less than 2-fold increase in the SSAT transcript, showing over 75% silencing of SSAT mRNA expression. The ROS production induced by androgen analog R1881 in these cells was measured by DCF dye oxidation assay. The green fluorescence of oxidized DCF in androgen treated LNCaP cells was shown. The effect of SSAT silencing on the R1881 induced ROS production measured by DCF assay was also shown. The ratio of DCF fluorescence (green):DNA fluorescence (blue) for each of the treated well of a 96 well plate normalized to that of the average of control untreated wells represents the ROS level per cell relative to that in control untreated cells. The data points are the mean of numbers obtained from repeat experiments using thirty identically treated wells.
Each data point was an average of readings from six wells repeated twice in triplicates. […] The ROS levels of all CPC-200 pretreated cells were normalized to the ROS levels of cells treated with CPC-200 alone.

[8] = test system: LNCaP human prostate cancer cells; conditions: 1 nM metribolone, 96 h; cited from earlier work

SMILES | activities against prostate cancer cells [1] | fluorescence score, geometric mean ([2]; 0.05 nM metribolone (control)) | fluorescence score, mean after logarithmic transformation ([2]; 0.05 nM metribolone (control)) | increase in the ratio of nuclear fluorescence intensities over the cytoplasmic intensities (AR IHC) ([2]; 1 nM metribolone compared to 0.05 nM metribolone) [fold] | fluorescence score, geometric mean ([2]; 1 nM metribolone) | fluorescence score, mean after logarithmic transformation ([2]; 1 nM metribolone) | cells responding dramatically (nuclear localization of AR) ([2]; high (1 nM) metribolone) [%] | nuclear and cytoplasmic ROS levels (v0 of DCFH dye oxidation) [3] | increase in the SSAT transcript ([4]; LNCaP cells stably transfected with SSAT siRNA (si22), 96 h R1881) | increase in SSAT mRNA level ([4]; LNCaP cells transfected only with the vector, 96 h R1881) | SSAT over-expression, dependence on R1881 concentration ([4]; LNCaP cells, 1 nM vs 0.05 nM R1881) | increase in SSAT mRNA level ([4]; R1881 treated LNCaP cells vs untreated control cells) [fold] | SSAT gene expression (microarray) [5] | putrescine, spermidine, N-acetyl spermidine and N-acetyl spermine levels [6] | spermine level [6] | R1881 induced ROS levels [7] | ROS production (DCFH dye oxidation) [8]
Cc1c(C)c2c(c(C)c1O)CCC(C)(C)O2 [PMCoI, 2,2,5,7,8 pentamethyl 6-chromanol] | considerable cytotoxic, anti-proliferative and also anti-androgenic activities |  |  |  |  |  |  |  |  |  |  |  |  |  |  |  | 
C[C@]1(O)CC[C@H]2[C@@H]3CCC4=CC(=O)CCC4=C3C=C[C@@]21C [metribolone, 17β-17-Hydroxy-17-methyl-estra-4,9,11-trien-3-one] |  | 329 | 5.80 | 1.5 | 605 | 6.41 | 20 | increase over time | less than 2 fold | over 8 fold | over-expressed only in cells treated with 1 nM R1881 | > 30 | highly overexpressed gene | increased | markedly decreased spermine level | only a minor increase in ROS levels | high levels of ROS
